Assay type in all cases: biochemical
Test [1] has as its target T1, phosphorylated LCK kinase (Homo sapiens, UniProt P06239, C224D/P223M).
T1 construct: starting from amino acid 223 to the end of the protein at amino acid 509; made in house; host or cells: insect cells
Put plainly: Inhibition of phosphorylated LCK tyrosine kinase activity (coupled spectrophotometric assay). The note with it: read-out: P-LCK % Inhibition at 1 μM. As to the method:
(§1) Cloning, expression and purification of the cytosolic domain of FGFR1 tyrosine kinase (amino acids 456-766) containing three amino acid substitutions (L457V, C488A, and C584S) were conducted as previously described (Mohammadi, M., Schiessinger, J., & Hubbard, S. R. Cell, 86, (1996) 577-587). This domain was expressed in Sf9 insect cells using a baculovirus expression vector, and protein was purified using conventional techniques. The LCK tyrosine kinase was expressed in insect cells as an N-terminal deletion starting from amino acid 223 to the end of the protein at amino acid 509. The N-terminus of the protein also had two amino acid substitutions, P223M and C224D. Kinases were purified using conventional chromatographic methods.
(§2) Tyrosine kinase activity was measured using a coupled, continuous spectrophotometric assay, in which production of phosphorylated poly(Glu,Tyr; 4:1) substrate and ADP is coupled to the pyruvate kinase-catalyzed transfer of a phosphate from phosphoenolpyruvate to ADP, with generation of pyruvate and regeneration of ATP. Pyruvate production is in turn coupled to the lactate dehydrogenase-catalyzed reduction of pyruvate to form lactate, with concomitant conversion of NADH to NAD^+. Loss of NADH is monitored by measuring absorbance at 340 nm (see e.g., Technikova-Dobrova et al., “Spectrophotometric Determination of Functional Characteristics of Protein Kinases with Coupled Enzymatic Assay,” FEBS Letters, 292 (1991), pp. 69-72). Enzyme activity was measured in the presence of 200 mM HEPES (pH 7.5), 2 mM phosphoenolpyruvate, 0.3 mM NADH, 20 mM MgCl2, 100 μM ATP, 5 mM DTT, 5.1 or 25 mM poly (Glu,Tyr) 4:1 for P-FGF or P-LCK assays, respectively, and 15 units/mL each of pyruvate kinase and lactate dehydrogenase. Phosphorylated FGF receptor kinase was present at 100 nM and phosphorylated LCK kinase was present at 50 nM. Assays were performed under initial rate conditions at 37° C., and rates were corrected for any background rate measured in the absence of enzyme. Percent inhibition was calculated relative to control enzyme assayed in the presence of 2% (v/v) DMSO.

Test [2] has as its target T2, Phosphorylated FGF receptor kinase (FGFR1 cytosolic domain) (Homo sapiens, UniProt P11362, C488A/C584S/L457V).
T2 construct: FGFR1 tyrosine kinase (amino acids 456-766); made in house; host or cells: Sf9 insect cells (baculovirus)
In words: Inhibition of phosphorylated FGF receptor tyrosine kinase activity (coupled spectrophotometric assay). The note with it: read-out: P-FGF % Inhibition at 1 μM. As to the method:
as §1, §2

A further test has as its target T3, CDK2/cyclin A (Homo sapiens, UniProt P24941).
T3 construct: made in house; host or cells: CDK2: insect cells (baculovirus); cyclin A: E. coli
In words: Inhibition of CDK2/cyclin A retinoblastoma kinase activity (Ki; % inhibition). The note with it: apparent Ki, CDK2/cyclin A, Rb substrate. The procedure, abridged:
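Apparent Ki values came from fitting concentration-dependent activity data to competitive (or competitive tight-binding) models, and % inhibition from single 30 nM screens of library compounds. Activity was measured as ³²P/³³P incorporation from 25 μM ATP into an Rb substrate by 10 or 19 nM CDK2/delta cyclin A at 30 °C over 60–75 min, pH 7.4.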

A further test addresses T4, human CDK4/cyclin D3 (Homo sapiens, UniProt P11802).
T4 construct: made in house; host or cells: insect cells co-infected with baculovirus vectors
In words: Inhibition of CDK4/cyclin D retinoblastoma kinase activity (Ki; % inhibition). The note with it: apparent Ki, CDK4/cyclin D3, Rb substrate. The procedure, abridged:
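Radiometric filter-binding read-out: Rb residues 386-928 phosphorylated by 5 nM CDK4/cyclin D3(1-264) from baculovirus-infected insect cells, 25 μM ATP, HEPES pH 7.4, 30 °C. Run 20 min, or 60 min for tight-binding inhibitors. Screening at 30 nM theoretical compound; apparent Ki by competitive-inhibition fitting.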

pKi: −log10 of the molar value. Structures can show the parent of a compound that is named as a salt.

T4 sequence (P11802 whole entry): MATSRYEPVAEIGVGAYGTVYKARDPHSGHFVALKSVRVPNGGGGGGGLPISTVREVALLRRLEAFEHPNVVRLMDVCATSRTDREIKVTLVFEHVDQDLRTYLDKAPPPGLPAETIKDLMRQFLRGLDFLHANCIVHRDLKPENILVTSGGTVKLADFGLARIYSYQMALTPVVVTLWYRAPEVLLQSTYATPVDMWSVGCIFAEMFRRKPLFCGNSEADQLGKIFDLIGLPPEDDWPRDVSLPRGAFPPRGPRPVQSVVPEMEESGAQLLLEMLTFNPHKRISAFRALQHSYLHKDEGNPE
T4 sequence (P30281 1-264 partner limits assumed): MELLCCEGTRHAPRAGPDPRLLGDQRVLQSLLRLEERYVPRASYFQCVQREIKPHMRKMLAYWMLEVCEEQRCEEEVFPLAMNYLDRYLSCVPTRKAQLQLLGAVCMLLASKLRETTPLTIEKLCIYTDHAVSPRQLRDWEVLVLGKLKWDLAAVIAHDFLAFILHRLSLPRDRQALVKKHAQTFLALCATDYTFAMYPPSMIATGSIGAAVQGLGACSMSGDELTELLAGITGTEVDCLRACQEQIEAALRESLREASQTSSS
T2 sequence (P11362 456-766 L457V/C488A/C584S): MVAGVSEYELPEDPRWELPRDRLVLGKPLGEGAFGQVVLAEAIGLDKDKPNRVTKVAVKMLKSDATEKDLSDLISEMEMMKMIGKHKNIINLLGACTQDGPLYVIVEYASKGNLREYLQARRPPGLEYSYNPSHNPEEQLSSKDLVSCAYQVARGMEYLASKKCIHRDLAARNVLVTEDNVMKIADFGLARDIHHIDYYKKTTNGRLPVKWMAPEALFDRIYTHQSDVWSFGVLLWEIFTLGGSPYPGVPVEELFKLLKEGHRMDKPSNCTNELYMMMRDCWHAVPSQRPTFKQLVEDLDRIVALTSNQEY
T1 sequence (P06239 223-509 P223M/C224D): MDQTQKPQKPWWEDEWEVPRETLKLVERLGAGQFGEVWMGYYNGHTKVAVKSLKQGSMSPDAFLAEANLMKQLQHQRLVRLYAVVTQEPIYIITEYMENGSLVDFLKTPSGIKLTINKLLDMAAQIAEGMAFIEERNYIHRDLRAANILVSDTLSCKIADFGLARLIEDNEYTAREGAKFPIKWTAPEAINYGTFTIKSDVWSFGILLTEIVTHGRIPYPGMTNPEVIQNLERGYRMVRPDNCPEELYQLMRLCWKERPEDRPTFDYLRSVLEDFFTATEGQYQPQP

Regarding `CN1CCC[C@H]1CNC(=O)c1ccc(Nc2nc(N)c(C(=O)c3c(F)cccc3F)s2)cc1` [Example A31, 4-[4-Amino-5-(2,6-difluoro-benzoyl)-thiazol-2-ylamino]-N-(1-methyl-pyrrolidin-2S-yl-methyl)-benzamide Dihydrochloride], the inhibition at 1 µM in test [1] and in test [2] was 0% throughout. The pKi was 7.31 at CDK2/cyclin A and 8.15 on human CDK4/cyclin D3.

As for `Nc1nc(Nc2ccc(C(=O)Nc3ccc(N4CCOCC4)cc3)cc2)sc1C(=O)c1c(F)cccc1F` [Example A21], the inhibition at 1 µM in test [1] and in test [2] was 0% each time. The negative-log Ki (pKi) on CDK2/cyclin A and on human CDK4/cyclin D3 was 6.98 in each case.

Regarding `CC(CN(C)C)NC(=O)c1ccc(Nc2nc(N)c(C(=O)c3c(F)cccc3F)s2)cc1` (centres unmarked) [Example A20, 4-[4-Amino-5-(2,6-difluoro-benzoyl)-thiazol-2-ylamino]-N-(2-dimethylamino-1RS-methyl-ethyl)-benzamide Hydrochloride Salt], the inhibition at 1 µM in test [1] and in test [2] was 0% each time. Also, the pKi was 6.79 on CDK2/cyclin A and 7.49 at human CDK4/cyclin D3.

Turning to `Nc1nc(Nc2ccc(C(=O)NCCc3ccc(O)cc3)cc2)sc1C(=O)c1c(F)cccc1F` [Example A14, 4-[4-Amino-5-(2,6-difluoro-benzoyl)-thiazol-2-ylamino]-N-[2-(4-hydroxy-phenyl)-ethyl]-benzamide], the inhibition at 1 µM in test [1] and in test [2] was 0% each time. Moreover, the pKi at CDK2/cyclin A is 7.22; on human CDK4/cyclin D3, 7.85.

Regarding `Nc1nc(Nc2ccc(C(=O)NCCN3CCCCC3)cc2)sc1C(=O)c1c(F)cccc1F` [Example A15, 4-[4-Amino-5-(2,6-difluoro-benzoyl)-thiazol-2-ylamino]-N-(2-piperidin-1-yl-ethyl)-benzamide], the inhibition at 1 µM in test [1] and in test [2] was 0% in each case. The pKi at CDK2/cyclin A is 6.82; at human CDK4/cyclin D3 it was 8.15.

Usually inhibition stands for the relative decrease from the control value, in per cent. The term pKi denotes −log10 of the Ki, conventionally taken in molar units.

These data come from US6720346B2, “Thiazole benzamide derivatives and pharmaceutical compositions for inhibiting cell proliferation” (Agouron Pharmaceuticals, Inc., priority 2001, dated 2004).
